Reference: patent US12157730B2, “Heteroaryl derivative, method for producing same, and pharmaceutical composition comprising same as effective component” (VORONOI INC., priority 2019, dated 2024)

Each molecule was assayed against T1, Ba/F3 cell EGFR Exon20 ins NPH (Homo sapiens, UniProt P00533, INS773NPH) (assay: Ba/F3 cell proliferation suppression, EGFR Exon20 ins NPH). Details: GI50 class; Ba/F3 cell line with NPH inserted at Exon20 of EGFR; 72 hours.
T1 construct: expressed in transfected cells; host or cells: Ba/F3
Format: cell-based
Summary of the method: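 Cells were seeded 24 h before dosing and then treated for 72 hours with compound at final concentrations of 0.3 nM to 50 um. Live cells were measured by CellTiter-Glo luminescence, and GI50 values were derived from growth ratio relative to control across three repeats.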

Ba/F3 (NPH) Activity	SMILES
A (GI50 < 50 nM)	C=CC(=O)Nc1cc(Nc2cc(N3OCC[C@@H]3Cc3cccc(Cl)c3Cl)ncn2)c(OC)cc1N1CCC(N2CCOCC2)CC1 [compound 979, N-(5-((6-((S)-3-(2,3-dichlorobenzyl)isoxazolidine-2-yl)pyrimidine-4-yl)amino)-4-methoxy-2-(4-morpholinopiperidine-1-yl)phenyl)acrylamide]
B (50 nM ≤ GI50 < 500 nM)	C=CC(=O)Nc1cc(Nc2cc(N3OCC[C@@H]3c3cc(F)cc(F)c3)ncn2)c(OC)cc1N1CCN(C2COC2)CC1 [Example 273, N-(5-((6-((R)-3-(3,5-difluorophenyl)isoxazolidine-2-yl)pyrimidine-4-yl)amino)-4-methoxy-2-(4-(oxetane-3-yl)piperazine-1-yl)phenyl)acrylamide]
A (GI50 < 50 nM)	C=CC(=O)Nc1cc(Nc2cc(N3OCC[C@@H]3c3ccc(F)cc3F)ncn2)c(OC)cc1N1CCC(N2CCN(CCN(C)C)CC2)CC1 [compound 431, N-(5-((6-((R)-3-(2,4-difluorophenyl)isoxazolidine-2-yl)pyrimidine-4-yl)amino)-2-(4-(4-(2-(dimethylamino)ethyl)piperazine-1-yl)piperidine-1-yl)-4-methoxyphenyl) acrylamide]
B (50 nM ≤ GI50 < 500 nM)	C=CC(=O)Nc1cc(Nc2cc(N3OCC[C@@H]3c3ccc4ccccc4c3)ncn2)c(OC)cc1N1CCN(C)CC1 [compound 509, N-(4-methoxy-2-(4-methylpiperazine-1-yl)-5-((6-((R)-3-(naphthalene-2-yl)isoxazolidine-2-yl)pyrimidine-4-yl)amino)phenyl)acrylamide]
A (GI50 < 50 nM)	C=CC(=O)Nc1cc(Nc2cc(N3OCC[C@@H]3c3cccc(Cl)c3)ncn2)c(OC)cc1N1CCC(N2CCN(C3CC3)CC2)CC1 [Example 138, N-(5-((6-((R)-3-(3-chlorophenyl)isoxazolidine-2-yl)pyrimidine-4-yl)amino)-2-(4-(4-cyclopropylpiperazine-1-yl)piperidine-1-yl)-4-methoxyphenyl) acrylamide]
B (50 nM ≤ GI50 < 500 nM)	C=CC(=O)Nc1cc(Nc2cc(N3OCC[C@@H]3c3ccc(C)nc3)ncn2)c(OC)cc1N1CCN(CCN(C)C)CC1 [Example 219, N-(2-(4-(2-(dimethylamino)ethyl)piperazine-1-yl)-4-methoxy-5-((6-((R)-3-(6-methylpyridine-3-yl)isoxazolidine-2-yl)pyrimidine-4-yl)amino)phenyl)acrylamide]
A (GI50 < 50 nM)	C=CC(=O)Nc1cc(Nc2cc(N3OCC[C@@H]3c3cccc4ccccc34)ncn2)c(OC)cc1N1CCC(N2CCN(C(C)C)CC2)CC1 [compound 490, N-(2-(4-(4-isopropylpiperazine-1-yl)piperidine-1-yl)-4-methoxy-5-((6-((R)-3-(naphthalene-1-yl)isoxazolidine-2-yl)pyrimidine-4-yl)amino)phenyl)acrylamide]
A (GI50 < 50 nM)	C=CC(=O)Nc1cc(Nc2cc(N3OCC[C@@H]3c3cccc(Cl)c3C)ncn2)c(OC)cc1N1CCC(N2CCN(C3CC3)CC2)CC1 [Example 145, N-(5-((6-((R)-3-(3-chloro-2-methylphenyl)isoxazolidine-2-yl)pyrimidine-4-yl)amino)-2-(4-(4-cyclopropylpiperazine-1-yl)piperidine-1-yl)-4-methoxyphenyl) acrylamide]
A (GI50 < 50 nM)	C=CC(=O)Nc1cc(Nc2cc(N3OCC[C@@H]3c3ccc(F)cc3F)ncn2)c(OC)cc1N1CCC(N2CCN(C3CCN(C)CC3)CC2)CC1 [compound 430, N-(5-((6-((R)-3-(2,4-difluorophenyl)isoxazolidine-2-yl)pyrimidine-4-yl)amino)-4-methoxy-2-(4-(4-(1-methylpiperidine-4-yl)piperazine-1-yl)piperidine-1-yl)phenyl)acrylamide]
A (GI50 < 50 nM)	C=CC(=O)Nc1cc(Nc2cc(N3OCC[C@@H]3Cc3cccc(Cl)c3C)ncn2)c(OC)cc1N1CCC(N2C[C@@H]3C[C@H]2CO3)CC1 [compound 1029, N-(2-(4-((1S,4S)-2-oxa-5-azabicyclo [2.2.1]heptane-5-yl)piperidine-1-yl)-5-((6-((S)-3-(3-chloro-2-methylbenzyl)isoxazolidine-2-yl)pyrimidine-4-yl)amino)-4-methoxyphenyl) acrylamide]
A (GI50 < 50 nM)	C=CC(=O)Nc1cc(Nc2cc(N3OCC[C@@H]3c3cccc(F)c3)ncn2)c(OC)cc1N1CCC(N2CCOCC2)CC1 [Example 38, N-(5-((6-((R)-3-(3-fluorophenyl)isoxazolidine-2-yl)pyrimidine-4-yl)amino)-4-methoxy-2-(4-morpholinopiperidine-1-yl)phenyl) acrylamide]
A (GI50 < 50 nM)	C=CC(=O)Nc1cc(Nc2cc(N3OCC[C@@H]3c3c(F)ccc(F)c3F)ncn2)c(OC)cc1N1CCC(N2CCN(C3CC3)[C@@H](C)C2)CC1 [Example 167, N-(2-(4-((S)-4-cyclopropyl-3-methylpiperazine-1-yl)piperidine-1-yl)-4-methoxy-5-((6-((R)-3-(2,3,6-trifluorophenyl)isoxazolidine-2-yl)pyrimidine-4-yl)amino)phenyl)acrylamide]
A (GI50 < 50 nM)	C=CC(=O)Nc1cc(Nc2cc(N3OCC[C@@H]3c3cc(F)cc(F)c3)ncn2)c(OC)cc1N1CCOCC1 [compound 823, N-(5-((6-((R)-3-(3,5-difluorophenyl)isoxazolidine-2-yl)pyrimidine-4-yl)amino)-4-methoxy-2-morpholinophenyl) acrylamide]
A (GI50 < 50 nM)	C=CC(=O)Nc1cc(Nc2cc(N3OCC[C@@H]3c3ccc(F)c(Cl)c3)ncn2)c(OC)cc1N1CCC(N2CCC(N(C)C)CC2)CC1 [compound 768, N-(5-((6-((R)-3-(3-chloro-4-fluorophenyl)isoxazolidine-2-yl)pyrimidine-4-yl)amino)-2-(4-(dimethylamino)-[1,4'-bipiperidine]-1'-yl)-4-methoxyphenyl) acrylamide]
A (GI50 < 50 nM)	C=CC(=O)Nc1cc(Nc2cc(N3OCC[C@@H]3c3cccc(C(F)(F)F)c3)ncn2)c(OC)cc1N1CC[C@@H](N2CCOCC2)C1 [compound 506, N-(4-methoxy-2-((R)-3-morpholinopyrolidine-1-yl)-5-((6-((R)-3-(3-(trifluoromethyl)phenyl)isoxazolidine-2-yl)pyrimidine-4-yl)amino)phenyl)acrylamide]
A (GI50 < 50 nM)	C=CC(=O)Nc1cc(Nc2cc(N3OCC[C@@H]3c3ccc(Cl)c(Cl)c3F)ncn2)c(OC)cc1N1CCC(N2CCN(C(C)C)CC2)CC1 [compound 804, N-(5-((6-((R)-3-(3,4-dichloro-2-fluorophenyl)isoxazolidine-2-yl)pyrimidine-4-yl)amino)-2-(4-(4-isopropylpiperazine-1-yl)piperidine-1-yl)-4-methoxyphenyl) acrylamide]
A (GI50 < 50 nM)	C=CC(=O)Nc1cc(Nc2cc(N3OCC[C@@H]3Cc3cccc(F)c3C)ncn2)c(OC)cc1N1CCC(N2CCN(C3CC3)[C@H](C)C2)CC1 [compound 1004, N-(2-(4-((R)-4-cyclopropyl-3-methylpiperazine-1-yl)piperidine-1-yl)-5-((6-((S)-3-(3-fluoro-2-methylbenzyl)isoxazolidine-2-yl)pyrimidine-4-yl)amino)-4-methoxyphenyl) acrylamide]
B (50 nM ≤ GI50 < 500 nM)	C=CC(=O)Nc1cc(Nc2cc(N3OCC[C@@H]3c3cccc(C#N)c3)ncn2)c(OC)cc1N1CCN(C2COC2)CC1 [compound 391, N-(5-((6-((R)-3-(3-cyanophenyl)isoxazolidine-2-yl)pyrimidine-4-yl)amino)-4-methoxy-2-(4-(oxetane-3-yl)piperazine-1-yl)phenyl) acrylamide]
A (GI50 < 50 nM)	C=CC(=O)Nc1cc(Nc2cc(N3OCC[C@@H]3c3ccc(F)c(Cl)c3)ncn2)c(OC)cc1N1CCC(N2CCN(C3CC3)[C@@H](C)C2)CC1 [Example 177, N-(5-((6-((R)-3-(3-chloro-4-fluorophenyl)isoxazolidine-2-yl)pyrimidine-4-yl)amino)-2-(4-((S)-4-cyclopropyl-3-methylpiperazine-1-yl)piperidine-1-yl)-4-methoxyphenyl) acrylamide]
A (GI50 < 50 nM)	C=CC(=O)Nc1cc(Nc2cc(N3OCC[C@@H]3c3ccc(F)c(Cl)c3)ncn2)c(OC)cc1N1CCC(N2CCO[C@H](C)C2)CC1 [compound 874, N-(5-((6-((R)-3-(3-chloro-4-fluorophenyl)isoxazolidine-2-yl)pyrimidine-4-yl)amino)-4-methoxy-2-(4-((R)-2-methylmorpholino)piperidine-1-yl)phenyl) acrylamide]
A (GI50 < 50 nM)	C=CC(=O)Nc1cc(Nc2cc(N3OCC[C@@H]3c3cccc(Cl)c3Cl)ncn2)c(OC)cc1-n1cnc(C)c1 [compound 527, N-(5-((6-((R)-3-(2,3-dichlorophenyl)isoxazolidine-2-yl)pyrimidine-4-yl)amino)-4-methoxy-2-(4-methyl-1H-imidazole-1-yl)phenyl)acrylamide]
A (GI50 < 50 nM)	C=CC(=O)Nc1cc(Nc2cc(N3OCC[C@@H]3c3cccc(F)c3Cl)ncn2)c(OC)cc1N1CCC(N2CCN(C3CC3)C[C@H]2C)CC1 [Example 143, N-(5-((6-((R)-3-(2-chloro-3-fluorophenyl)isoxazolidine-2-yl)pyrimidine-4-yl)amino)-2-(4-((R)-4-cyclopropyl-2-methylpiperazine-1-yl)piperidine-1-yl)-4-methoxyphenyl) acrylamide]
B (50 nM ≤ GI50 < 500 nM)	C=CC(=O)Nc1cc(Nc2cc(N3OCC[C@@H]3c3ccc(Cl)cc3F)ncn2)c(OC)cc1N1CCC(N2CCC(N(C)C)CC2)CC1 [compound 410, N-(5-((6-((R)-3-(4-chloro-2-fluorophenyl)isoxazolidine-2-yl)pyrimidine-4-yl)amino)-2-(4-(dimethylamino)-[1,4'-bipiperidine]-1'-yl)-4-methoxyphenyl) acrylamide]
